Test results published in patent US20250282757A1, “ARYL ETHER-SUBSTITUTED HETEROCYCLIC COMPOUNDS AS GLP1R AGONISTS” (MINDRANK AI LTD., priority 2021, published 2025).

Molecular target: GLP-1R (Homo sapiens, UniProt P43220)
Assay: Agonist activity on GLP-1R, HTRF cAMP detection in stably transfected GLP-1R/HEK293 cells
Type: cell-based
Settings: for EC50: 30 min incubation; for Max activity: relative to top concentration of reference GLP-1(7-37)
Method: Detection of Agonist Activity of the Test Compounds on GLP-1R
• 1) The test compound was dissolved in DMSO and diluted 4-fold with Bravo for a total of 10 concentration gradients (the starting concentration was 1 mM). […] HBSS (10 mL) pre-warmed at 37° C. was added, mixed gently, and centrifuged at 1000 rpm for 5 minutes. The supernatant was discarded and another 10 mL of […] was added and mixed gently. […] The plate was shaken to mix at 2000 rpm for 60 seconds. • 7) The cells in the 384-well plate were incubated in CO2 cell incubator at 37° C. for 30 min. • 8) 10 μL of HTRF cAMP detection solution was added to the 384-well plate, stick with sealing film, and incubated at room temperature for 1 hour. • 9) After 1 hour of incubation, the sealing film was removed. The plate was put into the EnVision microplate reader to read the values of OD665 nm and OD615 nm.

Chain of GLP-1R (P43220 24-463): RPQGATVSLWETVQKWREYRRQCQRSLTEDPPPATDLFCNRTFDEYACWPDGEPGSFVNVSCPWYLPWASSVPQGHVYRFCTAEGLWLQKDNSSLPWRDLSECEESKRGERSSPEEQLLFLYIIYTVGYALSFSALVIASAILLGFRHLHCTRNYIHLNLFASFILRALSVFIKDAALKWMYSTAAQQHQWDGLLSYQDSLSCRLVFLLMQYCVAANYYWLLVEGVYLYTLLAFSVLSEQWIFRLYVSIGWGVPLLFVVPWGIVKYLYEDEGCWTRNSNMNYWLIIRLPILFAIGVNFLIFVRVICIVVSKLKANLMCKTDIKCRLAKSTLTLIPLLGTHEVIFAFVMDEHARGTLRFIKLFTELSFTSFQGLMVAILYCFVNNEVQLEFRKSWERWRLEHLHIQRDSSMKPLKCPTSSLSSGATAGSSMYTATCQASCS

Compound | EC50 [nM] | Max activity [%]
O=C(O)c1ccc2nc(CN3CCC(Oc4cccc(COc5ccc(Br)cc5F)n4)CC3)n(C[C@@H]3CCO3)c2c1 [Compound C4, (S)-2-((4-((6-((4-bromo-2-fluorophenoxy)methyl)pyridin-2-yl)oxy)piperidin-1-yl)methyl)-1-(oxetan-2-ylmethyl)-1H-benzo[d]imidazole-6-carboxylic acid] | 0.56 | 147.9
N#Cc1ccc(OCc2cccc(SC3CCN(Cc4nc5ccc(C(=O)O)cc5n4C[C@@H]4CCO4)CC3)n2)c(F)c1 [Compound C41, (S)-2-((4-((6-((4-cyano-2-fluorophenoxy)methyl)pyridin-2-yl)thio)piperidin-1-yl)methyl)-1-(oxetan-2-ylmethyl)-1H-benzo[d]imidazole-6-carboxylic acid] | 4.16 | 122.3
N#CCC1(Cn2c(CN3CCC(Oc4cccc(COc5ccc(C#N)cc5F)n4)CC3)nc3ccc(C(=O)O)cc32)CC1 [Compound 133, 2-((4-((6-((4-cyano-2-fluorophenoxy)methyl)pyridin-2-yl)oxy)piperidin-1-yl)methyl)-1-((1-(cyanomethyl)cyclopropyl)methyl)-1H-benzo[d]imidazole-6-carboxylic acid] | 0.264 | 126.6
CCn1cncc1Cn1c(CN2CCC(Oc3cccc(COc4ccc(C#N)cc4F)c3)CC2)nc2ccc(C(=O)O)cc21 [Compound 13, 2-((4-(3-((4-cyano-2-fluorophenoxy)methyl)phenoxy)piperidin-1-yl)methyl)-1-((1-ethyl-1H-imidazol-5-yl)methyl)-1H-benzo[d]imidazole-6-carboxylic acid] | 0.114 | 99.4
CCn1nccc1Cn1c(CN2CCC(Oc3cccc(COc4ccc(C#N)cc4F)n3)CC2)nc2ccc(C(=O)O)cc21 [Compound C39, 2-((4-((6-((4-cyano-2-fluorophenoxy)methyl)pyridin-2-yl)oxy)piperidin-1-yl)methyl)-1-((1-ethyl-1H-pyrazol-5-yl)methyl)-1H-benzo[d]imidazole-6-carboxylic acid] | 7.93 | 142.8
CCn1cncc1Cn1c(CN2CCC(Oc3cccc(COc4ccc(C#N)cc4F)n3)CC2)nc2ccc(C(=O)O)nc21 [Compound 6, 2-((4-((6-((4-cyano-2-fluorophenoxy)methyl)pyridin-2-yl)oxy)piperidin-1-yl)methyl)-3-((1-ethyl-1H-imidazol-5-yl)methyl)-3H-imidazo[4,5-b]pyridine-5-carboxylic acid] | 0.133 | 114.8
N#Cc1ccc(OCc2cccc(OC3CCN(Cc4cc5ccc(C(=O)O)cc5n4CC4CCO4)CC3)n2)c(F)c1 (stereo not drawn) [Compound C42, 2-((4-((6-((4-cyano-2-fluorophenoxy)methyl)pyridin-2-yl)oxy)piperidin-1-yl)methyl)-1-(oxetan-2-ylmethyl)-1H-indole-6-carboxylic acid] | > 100 | 
Cn1c(CN2CCC(Oc3cccc(COc4ccc(Cl)cc4F)n3)CC2)nc2ccc(C(=O)O)cc21 [Compound C22, 2-((4-((6-((4-chloro-2-fluorophenoxy)methyl)pyridin-2-yl)oxy)piperidin-1-yl)methyl)-1-methyl-1H-benzo[d]imidazole-6-carboxylic acid] | 30.4 | 
N#Cc1ccc(OCc2cccc(COC3CCN(Cc4nc5ccc(C(=O)O)cc5n4C[C@@H]4CCO4)CC3)n2)c(F)c1 [Compound C1, (S)-2-((4-((6-((4-cyano-2-fluorophenoxy)methyl)pyridin-2-yl)methoxy)piperidin-1-yl)methyl)-1-(oxetan-2-ylmethyl)-1H-benzo[d]imidazole-6-carboxylic acid] | 1190 | 76.6
N#Cc1ccc(COc2cccc(OC3CN(Cc4nc5ccc(C(=O)O)cc5n4C[C@@H]4CCO4)C3)n2)c(F)c1 [Compound S3, (S)-2-((3-((6-((4-cyano-2-fluorobenzyl)oxy)pyridin-2-yl)oxy)azetidin-1-yl)methyl)-1-(oxetan-2-ylmethyl)-1H-benzo[d]imidazole-6-carboxylic acid] | 2170 | 70.1
CC(C)n1cncc1Cn1c(CN2CCC(Oc3cccc(COc4ccc(C#N)cc4F)c3)CC2)nc2ccc(C(=O)O)cc21 [Compound C32] | 0.768 | 114.3
C#Cc1ccc(OCc2cccc(OC3CCN(Cc4nc5ccc(C(=O)O)cc5n4Cc4cncn4C(C)C)CC3)c2)c(F)c1 [Compound C29, 2-((4-(3-((4-ethynyl-2-fluorophenoxy)methyl)phenoxy)piperidin-1-yl)methyl)-1-((1-isopropyl-1H-imidazol-5-yl)methyl)-1H-benzo[d]imidazole-6-carboxylic acid] | 6.83 | 121.6
N#Cc1ccc(OCc2cccc(OC3CCN(Cc4nc5ccc(C(=O)O)cc5n4C[C@@H]4CCO4)CC3)c2)c(F)c1 [Compound 67, (S)-2-((4-(3-((4-cyano-2-fluorophenoxy)methyl)phenoxy)piperidin-1-yl)methyl)-1-(oxetan-2-ylmethyl)-1H-benzo[d]imidazole-6-carboxylic acid] | 1.09 | 106.4
CCN1CCC[C@H]1Cn1c(CN2CCC(Oc3cccc(COc4ccc(C#N)cc4F)n3)CC2)nc2ccc(C(=O)O)cc21 [Compound C35, (S)-2-((4-((6-((4-cyano-2-fluorophenoxy)methyl)pyridin-2-yl)oxy)piperidin-1-yl)methyl)-1-((1-ethylpyrrolidin-2-yl)methyl)-1H-benzo[d]imidazole-6-carboxylic acid] | > 100 | 
N#CCC1(Cn2c(CN3CCC(Oc4ccc(F)c(OCc5ccc(Cl)cc5F)n4)CC3)nc3c(F)cc(C(=O)O)cc32)CC1 [Compound S41, 2-((4-((6-((4-chloro-2-fluorobenzyl)oxy)-5-fluoropyridin-2-yl)oxy)piperidin-1-yl)methyl)-1-((1-(cyanomethyl)cyclopropyl)methyl)-4-fluoro-1H-benzo[d]imidazole-6-carboxylic acid] | 21.7 | 94.8
Glucagon-like peptide-1 [GLP-1(7-37), reference compound] |  | 98.1
CC(C)n1cncc1Cn1c(CN2CCC(Oc3cccc(COc4ccc(C#N)cc4F)n3)CC2)nc2ccc(C(=O)O)cc21 [Compound C31, 2-((4-((6-((4-cyano-2-fluorophenoxy)methyl)pyridin-2-yl)oxy)piperidin-1-yl)methyl)-1-((1-isopropyl-1H-imidazol-5-yl)methyl)-1H-benzo[d]imidazole-6-carboxylic acid] | 0.833 | 106.6
N#Cc1ccc(OCc2cccc(OC3CCN(Cc4nc5ccc(C(=O)O)cc5n4CC4COC4)CC3)n2)c(F)c1 [Compound C82, 2-((4-((6-((4-cyano-2-fluorophenoxy)methyl)pyridin-2-yl)oxy)piperidin-1-yl)methyl)-1-(oxetan-3-ylmethyl)-1H-benzo[d]imidazole-6-carboxylic acid] | 7.48 | 90.7
O=C(O)c1ccc2nc(CN3CCC(Oc4cccc(CSc5ccc(Cl)cc5F)n4)CC3)n(C[C@@H]3CCO3)c2c1 [Compound C8] | 25.6 | 117.4
Cc1cc(C(=O)O)cc2c1nc(CN1CCC(Oc3cccc(COc4ccc(C#N)cc4F)c3)CC1)n2C[C@@H]1CCO1 [Compound C36] | 3.92 | 104.0
